In patent publication US8933103B2, “Pyridone derivatives” (Daiichi Sankyo Company, Limited, priority 2012, dated 2015):

Assays:
[1] = target: T1, phosphorylated Axl (pAxl Y702) in NCI-H1299 cells (Homo sapiens, UniProt P30530); experiment: Intracellular Axl Phosphorylation Inhibitory Activity (pAxl, NCI-H1299 cells); assay type: cell-based; details: 1 h compound incubation, GAS6 stimulation 10 minutes, pAxl (Y702) level
T1 construct: endogenous in cells; host or cells: NCI-H1299
T1 sequence (P30530 26-894): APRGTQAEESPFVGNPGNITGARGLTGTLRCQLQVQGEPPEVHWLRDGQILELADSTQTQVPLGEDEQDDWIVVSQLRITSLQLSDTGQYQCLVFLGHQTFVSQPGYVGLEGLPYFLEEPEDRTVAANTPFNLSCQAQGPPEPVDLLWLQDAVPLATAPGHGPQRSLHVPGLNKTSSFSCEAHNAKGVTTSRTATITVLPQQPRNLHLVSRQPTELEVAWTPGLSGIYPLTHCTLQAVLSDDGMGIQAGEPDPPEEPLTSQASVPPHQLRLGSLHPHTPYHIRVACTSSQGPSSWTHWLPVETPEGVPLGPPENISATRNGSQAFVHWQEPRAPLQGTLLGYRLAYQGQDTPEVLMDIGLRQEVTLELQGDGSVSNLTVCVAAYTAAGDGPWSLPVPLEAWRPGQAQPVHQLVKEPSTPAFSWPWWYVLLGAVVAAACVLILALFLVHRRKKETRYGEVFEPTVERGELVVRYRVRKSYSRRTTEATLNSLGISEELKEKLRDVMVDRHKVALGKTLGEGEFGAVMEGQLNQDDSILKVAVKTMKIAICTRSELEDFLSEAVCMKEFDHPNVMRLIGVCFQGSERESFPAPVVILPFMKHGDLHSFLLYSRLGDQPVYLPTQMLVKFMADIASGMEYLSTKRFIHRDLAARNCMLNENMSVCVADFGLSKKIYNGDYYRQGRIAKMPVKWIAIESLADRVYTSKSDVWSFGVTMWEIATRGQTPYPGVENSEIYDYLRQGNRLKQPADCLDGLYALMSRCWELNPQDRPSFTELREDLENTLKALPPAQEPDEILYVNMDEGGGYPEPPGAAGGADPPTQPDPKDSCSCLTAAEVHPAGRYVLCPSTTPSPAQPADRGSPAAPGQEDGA
Protocol: A phosphorylated Axl (hereinafter pAxl) inhibitory test was performed using the human non-small-cell lung cancer-derived cell strain NCI-H1299.
On the following day, the medium was removed, 100 μl of fresh medium were added, and the cells were cultured at 37° C. in the presence of 5% CO2 for one day.
The test compound was dissolved in DMSO and diluted with medium to prepare a sample solution (DMSO concentration: 2%). Twenty-five microliters of medium or sample-added medium was added to each well (DMSO concentration: 0.4%), and the plate was incubated at 37° C. in the presence of 5% CO2 for one hour.
After stirring, the plate was incubated at 37° C. in the presence of 5% CO2 for 10 minutes.
The supernatant was discarded, and 0.1 ml of a 37% formalin solution diluted to 4% with phosphate buffer (PBS) (hereinafter “4% formalin solution”) was added to each well. The plate was allowed to stand at room temperature for 10 minutes.
Next, the 4% formalin solution was discarded, and 0.2 ml of a solution of Triton X-100 diluted to 0.1% with PBS (hereinafter “wash buffer”) was added. The wash buffer was discarded using a decanter, and excess moisture in the plate was removed on a paper towel.
Subsequently, […] NaN3 and H2O2 were added to the wash buffer at 0.1% (hereinafter “quenching buffer”), and 0.1 ml of the quenching buffer was added to each well. The plate was allowed to stand at room temperature for 15 minutes.
The quenching buffer was discarded, and 0.2 ml of wash buffer was added. The wash buffer was discarded using a decanter, and excess moisture in the plate was removed on a paper towel.
Skim milk (Nacalai Tesque) was added to the wash buffer at a final concentration of 5% (hereinafter “blocking buffer”), and 0.25 ml of the blocking buffer was added to each well. The plate was allowed to stand at room temperature for one hour.
After light stirring, the plate was incubated for 20 minutes. Luminescence was then measured by ARVO sx (PerkinElmer), and the pAxl (Y702) level was measured.
pAxl Inhibitory activity was determined by the following formula. Inhibition %=100−(A−B)×100/(T−B)
A: Measurement of the test compound
T: Luminescence value of the reaction solution with a compound not added

[2] = target: T2, AXL (fusion protein of amino acids 464-885 of the intracellular domain of human AXL with glutathione transferase) (Homo sapiens, UniProt P30530); experiment: Cell-Free Axl Kinase Inhibitory Activity
T2 sequence (P30530 464-885 isoform P30530-2): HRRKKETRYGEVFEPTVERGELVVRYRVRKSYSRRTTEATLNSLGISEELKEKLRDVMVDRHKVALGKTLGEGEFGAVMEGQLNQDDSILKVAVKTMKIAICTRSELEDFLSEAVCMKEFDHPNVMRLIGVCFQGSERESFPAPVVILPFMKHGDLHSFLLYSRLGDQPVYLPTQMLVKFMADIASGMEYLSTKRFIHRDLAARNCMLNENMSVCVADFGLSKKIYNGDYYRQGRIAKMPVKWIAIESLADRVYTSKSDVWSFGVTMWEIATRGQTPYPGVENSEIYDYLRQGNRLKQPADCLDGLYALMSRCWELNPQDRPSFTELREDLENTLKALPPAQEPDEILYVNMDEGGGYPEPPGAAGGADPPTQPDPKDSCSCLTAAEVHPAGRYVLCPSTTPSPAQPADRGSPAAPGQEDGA
Protocol: Next, the test compound was diluted with DMSO, and 1 μl of this diluted solution was added to each well.
Five microliters of this solution were added to each well to initiate a kinase reaction. The plate was incubated at 28° C. for 1.5 hours, and 40 μl of a termination buffer (100 mM HEPES (pH 7.4), 0.015% Brij-35, 40 mM EDTA, 0.1% Coating Reagent 3) was added to each well to terminate the reaction.
The substrate peptide and the phosphorylated peptide in the reaction solution were separated and quantified by EZ Reader II (Caliper Life Sciences).
IC50 was determined from inhibition data for 12 test compound concentrations by nonlinear regression (four-parameter logistic regression) using the following formula.

Work on `CC(=O)N1C2C=C(c3cnc(N)c(-c4ccc(NC(=O)c5cn(CCF)cc(-c6ccc(F)cc6)c5=O)cc4)c3)CC1CC2` (stereo not drawn) [Example 81, N-{4-[5-(8-Acetyl-8-azabicyclo[3.2.1]oct-2-en-3-yl)-2-aminopyridin-3-yl]phenyl}-1-(2-fluoroethyl)-5-(4-fluorophenyl)-4-oxo-1,4-dihydropyridine-3-carboxamide] yielded an IC50 [1] of 100 to 500 nM and an IC50 [2] of 23 nM.
For `COc1ccnc(N)c1-c1ccc(NC(=O)c2cn(Cc3ccc(F)cc3)cc(C(=O)N3CCCC3)c2=O)cc1` [Example 84, N-[4-(2-Amino-4-methoxypyridin-3-yl)phenyl]-1-(4-fluorobenzyl)-4-oxo-5-(pyrrolidin-1-ylcarbonyl)-1,4-dihydropyridine-3-carboxamide], the IC50 [1] was 100 to 500 nM and the IC50 [2] was 10 to 20 nM.
For `COc1ccc(-c2cnc(N)c(-c3ccc(NC(=O)c4cn(CC(F)(F)F)cc(-c5ccc(F)c(Br)c5)c4=O)cc3)c2)cc1OC` [Example 89, N-{4-[2-Amino-5-(3,4-dimethoxyphenyl)pyridin-3-yl]phenyl}-5-(4-fluoro-3-bromophenyl)-4-oxo-1-(2,2,2-trifluoroethyl)-1,4-dihydropyridine-3-carboxamide], the IC50 [1] was 50 to 100 nM and the IC50 [2] was 1 to 10 nM.
